{"source": "paper PMC3997506", "about": "“Novel PPAR Pan Agonist, ZBH Ameliorates Hyperlipidemia and Insulin Resistance in High Fat Diet Induced Hyperlipidemic Hamster” (PLoS ONE, 2014)", "key": {"[1]": {"details": "stated in Introduction, no method given; cited from earlier work"}, "3T3-L1 adipocytes": {"test_system": "3T3-L1 adipocytes", "assay": "Adiponectin expression in 3T3-L1 adipocytes", "assay_type": "cell-based", "details": "10–100 µM, dose dependent, data not shown"}, "hPPARα-LBD": {"molecular_target": "T1, hPPARα-LBD (Homo sapiens, UniProt Q07869)", "T1 construct": "purchased Cayman chemical", "T1 sequence (Q07869 239-466 limits assumed)": "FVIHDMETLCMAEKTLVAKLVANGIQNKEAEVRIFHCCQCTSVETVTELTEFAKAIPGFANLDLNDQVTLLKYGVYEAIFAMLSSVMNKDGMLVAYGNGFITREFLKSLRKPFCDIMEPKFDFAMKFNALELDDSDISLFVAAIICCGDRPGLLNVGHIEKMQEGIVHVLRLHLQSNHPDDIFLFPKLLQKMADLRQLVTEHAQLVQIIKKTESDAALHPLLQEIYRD", "assay": "Ligand binding assay with SPR (Biacore T100)", "details": "steady state affinity fitting", "procedure": "(§1) The binding affinities of ZBH for PPARα-LBD, PPARδ-LBD or PPARγ-LBD (Cayman chemical, MI, USA) were assayed using SPR-based Biacore T100 (GE Healthcare/Biacore, Uppsala, Sweden) as described previously, [20]."}, "hPPARγ-LBD": {"molecular_target": "T2, hPPARγ-LBD (Homo sapiens, UniProt P37231)", "T2 construct": "purchased Cayman chemical", "T2 sequence (P37231 238-503 limits assumed)": "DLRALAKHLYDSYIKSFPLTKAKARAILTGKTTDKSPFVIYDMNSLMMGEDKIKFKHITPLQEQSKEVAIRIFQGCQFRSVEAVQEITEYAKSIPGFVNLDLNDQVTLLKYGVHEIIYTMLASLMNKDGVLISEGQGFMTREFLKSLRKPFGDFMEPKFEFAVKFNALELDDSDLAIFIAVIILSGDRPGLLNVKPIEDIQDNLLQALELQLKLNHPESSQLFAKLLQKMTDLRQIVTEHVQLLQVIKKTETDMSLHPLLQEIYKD", "assay": "Ligand binding assay with SPR (Biacore T100)", "details": "steady state affinity fitting", "procedure": "as §1"}, "hPPARδ-LBD": {"molecular_target": "T3, hPPARδ-LBD (Homo sapiens, UniProt Q03181)", "T3 construct": "purchased Cayman chemical", "T3 sequence (Q03181 211-439 limits assumed)": "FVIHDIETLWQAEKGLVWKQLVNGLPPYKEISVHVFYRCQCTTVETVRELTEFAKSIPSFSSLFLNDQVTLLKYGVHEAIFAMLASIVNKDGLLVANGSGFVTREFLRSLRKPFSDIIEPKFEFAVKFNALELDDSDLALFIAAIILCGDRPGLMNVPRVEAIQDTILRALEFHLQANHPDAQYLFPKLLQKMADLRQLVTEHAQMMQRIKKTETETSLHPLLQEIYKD", "assay": "Ligand binding assay with SPR (Biacore T100)", "details": "steady state affinity fitting", "procedure": "as §1"}, "hyperlipidemic hamsters": {"test_system": "hyperlipidemic hamsters", "assay": "High fat diet induced hyperlipidemic hamster, 5-week oral treatment", "assay_type": "in vivo, golden Syrian hamsters (Mesocricetus auratus)", "description": "Male golden Syrian hamsters (Mesocricetus auratus) weighing 90–110 g were purchased from Vital River Laboratory Animal Technology Co. Ltd. (Beijing, China). Animals were maintained on a 12-h day/night schedule with ad libitum access to nutrition and water. […] Blood samples were taken after overnight fasting from the suborbital sinus under light sevoflurane anesthesia on the fifth and tenth day for measurement of serum total cholesterol (TC) and triglyceride (TG). […] The dose selection of ZBH was based on previous pilot study. Hamsters with standard rodent diet were used as normal control. Compounds were dissolved in DMSO and suspended in 0.5% methylcellulose and administered by gavage once a day for 5 weeks. Individual body weight and cage food consumption were measured every two days. Dynamic serum lipid monitoring was performed weekly and blood samples were taken from the retro-orbital venous plexus under light ether anesthesia using a glass capillary tube after overnight fasting. Then the animal were sacrificed by cervical decapitation under anesthesia, and the liver, heart, epididymal white adipose tissue (eWAT) and gastrocnemius muscle were excised, rapidly frozen in liquid nitrogen and maintained at −80°C until analysis. Serum TC, TG and free fatty acids (FFA) were measured by using commercial kit (Nanjing Jiancheng, Bioengineering Institute, Nanjing, China) as previously described. Serum glucose, low-density lipoprotein cholesterol (LDLc) and high-density lipoprotein cholesterol (HDLc) were measured with the Hitachi 917 automated biochemistry analyzer (Roche diagnostics, Indianapolis, USA). Serum insulin was quantified by ELISA using a hamster insulin assay kit (Crystal Chem Inc., IL, and USA). The insulin sensitivity index (ISI) was calculated by the values of fasting blood glucose (FBG) and fasting blood insulin (FBI). ISI = 1/(FBG×FBI) 1000 [21]. […] After evaporation of the chloroform under nitrogen, lipid samples were resuspended in isopropyl alcohol, and TG and TC content was determined by enzymatic assay. […] Frozen liver samples were used to perform hepatic lipid specific staining with Oil Red O staining."}}, "data": [{"smiles": "COc1ccc(/C=C/c2cc(OC)cc(OCCCC(C)(C)C(=O)O)c2)cc1", "note": "[ZBH, (E)-5-(3-methoxy-5-(4-methoxystyryl)phenoxy) -2,2-dimethylpentanoic acid]", "values": [{"measurement": "oral bioavailability", "setting": "[1]", "value": 67, "unit": "%"}, {"measurement": "adiponectin expression", "setting": "3T3-L1 adipocytes", "value": "dramatically up-regulate"}, {"measurement": "Kd", "setting": "hPPARα-LBD", "value": 0.826, "unit": "µM"}, {"measurement": "Kd", "setting": "hPPARγ-LBD", "value": 3.9, "unit": "µM"}, {"measurement": "Kd", "setting": "hPPARδ-LBD", "value": 4.17, "unit": "µM"}, {"measurement": "Kidney weight", "setting": "hyperlipidemic hamsters; 6.25 mg/kg, 5 weeks", "value": "1.01 ± 0.08", "unit": "g"}, {"measurement": "Liver weight", "setting": "hyperlipidemic hamsters; 6.25 mg/kg, 5 weeks", "value": "7.78 ± 0.23", "unit": "g"}, {"measurement": "Retroperitoneal WAT", "setting": "hyperlipidemic hamsters; 6.25 mg/kg, 5 weeks", "value": "13.93 ± 0.82", "unit": "g"}, {"measurement": "Subcutaneous WAT", "setting": "hyperlipidemic hamsters; 6.25 mg/kg, 5 weeks", "value": "7.28 ± 0.32", "unit": "g"}, {"measurement": "iBAT", "setting": "hyperlipidemic hamsters; 6.25 mg/kg, 5 weeks", "value": "0.23 ± 0.01", "unit": "g"}, {"measurement": "Kidney weight", "setting": "hyperlipidemic hamsters; 12.5 mg/kg, 5 weeks", "value": "0.95 ± 0.09", "unit": "g"}, {"measurement": "Liver weight", "setting": "hyperlipidemic hamsters; 12.5 mg/kg, 5 weeks", "value": "7.77 ± 0.31", "unit": "g"}, {"measurement": "Retroperitoneal WAT", "setting": "hyperlipidemic hamsters; 12.5 mg/kg, 5 weeks", "value": "12.63 ± 0.66", "unit": "g"}, {"measurement": "Subcutaneous WAT", "setting": "hyperlipidemic hamsters; 12.5 mg/kg, 5 weeks", "value": "6.53 ± 0.42", "unit": "g"}, {"measurement": "iBAT", "setting": "hyperlipidemic hamsters; 12.5 mg/kg, 5 weeks", "value": "0.21 ± 0.01", "unit": "g"}, {"measurement": "maximum decrease in serum insulin levels", "setting": "hyperlipidemic hamsters; 25 mg kg^−1, 5 weeks", "value": 84, "unit": "%"}, {"measurement": "serum FFA", "setting": "hyperlipidemic hamsters; 25 mg kg^−1, after one-week treatment until the end", "value": "lowered remarkably"}, {"measurement": "Kidney weight", "setting": "hyperlipidemic hamsters; 25 mg/kg, 5 weeks", "value": "0.94 ± 0.05", "unit": "g"}, {"measurement": "Liver weight", "setting": "hyperlipidemic hamsters; 25 mg/kg, 5 weeks", "value": "8.52 ± 0.45", "unit": "g"}, {"measurement": "Retroperitoneal WAT", "setting": "hyperlipidemic hamsters; 25 mg/kg, 5 weeks", "value": "10.43 ± 0.39", "unit": "g"}, {"measurement": "Subcutaneous WAT", "setting": "hyperlipidemic hamsters; 25 mg/kg, 5 weeks", "value": "5.19 ± 0.12", "unit": "g"}, {"measurement": "iBAT", "setting": "hyperlipidemic hamsters; 25 mg/kg, 5 weeks", "value": "0.19 ± 0.01", "unit": "g"}, {"measurement": "hepatic TG contents / hepatic steatosis", "setting": "hyperlipidemic hamsters; 5 weeks, Figure 7", "value": "greatly lowered"}, {"measurement": "serum GOT, GPT, CK and creatinine levels", "setting": "hyperlipidemic hamsters; 5 weeks, Figure S1", "value": "not altered"}, {"measurement": "increase of the weight of the liver", "setting": "hyperlipidemic hamsters; 6.25-25 mg/kg, after 5 weeks, vs MC", "value": 7, "unit": "%∼17"}, {"measurement": "serum TG, TC and LDLc", "setting": "hyperlipidemic hamsters; 12.5 or 25 mg kg^−1", "value": "time and dose-dependent decrease"}, {"measurement": "impact on food intake", "setting": "hyperlipidemic hamsters; Figure 5B", "value": "negligible"}, {"measurement": "body weight gain", "setting": "hyperlipidemic hamsters; ZBH 25 mg/kg, bezafibrate 50 mg/kg, Figure 5A", "value": "gained less weight"}, {"measurement": "increase in relative liver weight", "setting": "hyperlipidemic hamsters; highest dose, relative to MC", "value": 17, "unit": "%"}]}]}
